Reference: patent US8927547B2, “Pyrimidine derivatives” (Noviga Research AB, priority 2010, dated 2015)

Legend:
Type in all cases: cell-based
[1] = system: CCRF-CEM cancer cells - leukaemia; assay: Fluorometric Microculture Cytotoxicity Assay (FMCA), CCRF-CEM; details: Homo sapiens, 72 h incubation
From the text: (§1) The Fluorometric Microculture Cytotoxicity Assay, FMCA, is a three day non-clonogenic microplate-based cell viability assay used for measurement of the cytotoxic and/or cytostatic effect of compounds in vitro (Lindhagen, E., et al. Nat Protoc, 2008. 3(8): p. 1364-9). FMCA (Larsson, R. and P. Nygren, Anticancer Res, 1989. 9(4): p. 1111-9) represents a valuable method to measure cytotoxicity in a number of cell types, both cell lines and primary cells from patients (Larsson, R., et al., Int J Cancer, 1992. 50(2): p. 177-85; Fridborg, H., et al., Eur J Cancer, 1999. 35(3): p. 424-32; Dhar, S., et al., Br J Cancer, 1996. 74(6): p. 888-96).
(§2) FMCA is based on the principle that fluorescein diacetate (FDA) is converted to the fluorescent probe fluorescein by esterases in the plasma membranes of living cells. For experiments, 96 or 384-well microplates are prepared with compounds and stored at −70° C. until use. Cells are then seeded into the drug-prepared plates and placed in an incubator for 72 h. On the last day of incubation, the plates are washed and a buffer containing FDA is added and incubated with the cells for 45 minutes. Finally the fluorescence per well is measured in a fluorometer and a Survival Index % (SI) for each compound-treated well is calculated with the equation: Compound-treated cells minus blank divided by control cells minus blank. A high SI-value indicates a large percentage of living cells and vice versa.
In subsequent experiments, compounds were tested, along with kinase inhibitors (dasatinib, pazopanib, sorafenib, and sunitinib) as described above. Initially, the acute lymphoblastic leukaemia cell line CCRF-CEM (see e.g. Foley G E, et al. Cancer 1965, 18, 522-529) was used throughout. In the assay plates, medium was added to six empty wells (blank wells) and wells were filled with PBS and cell suspension and served as control wells. SI-values were then calculated for each compound-treated well as described above. All experiments were conducted twice and a new batch of plates was prepared for each experiment.
For dose-response experiments, 384-well plates were prepared as follows:
(§3) Compounds of the invention as well as kinase inhibitors sorafenib, sunitinib, dasatinib, and pazopanib (reference compounds) were diluted with PBS to a concentration which was ten-times higher than the desired starting concentration. Then, a Biomek 2000 liquid handling system was employed to serially dilute the compounds in a deep-well 384-well plate. From this plate, assay plates containing 5 μl compound per well were prepared with the Biomek 2000. Certain compounds precipitated when diluted with PBS, and these compounds were therefore prepared in a 96-well plate manually as described above using culture medium RPMI 1640 instead of PBS.
(§4) The compounds were also tested at five concentrations, with five times serial dilution on the following cell types: CCRF-CEM, hTERT-RPE1 (normal retinal epithelial cells), hRPTEpiC (normal renal cells) and PBMC (peripheral blood mononuclear cells). Each experiment was performed three times, except for PBMC and hRPTEpiC, which were performed twice. SI-values were calculated, graphs were plotted using GraphPadPrism 5.0 (GraphPad Software Inc. La Jolla, Calif.) and EC50-values for each cell type and compound were determined from the curves.

[2] = system: HCT116; assay: FMCA, HCT116 colon cancer; details: Homo sapiens, HCT-116, read-out: EC50 (μM) in various cancer cell lines: HCT116
From the text: as §1, §2, §3, §4
(§5) The compounds of the invention were also tested on further cancer cell lines related to colon cancer (HCT116; see e.g Brattain M G, et al. Cancer Res. 1981, 41, 1751-1756), breast cancer (MCF7; see e.g. Soule H D, et al. J. Natl. Cancer Inst. 1973, 51, 1409-1416), teniposide-resistant leukaemia (CEM/VM1; see e.g. Danks M K et al. Cancer Res. 1987, 47, 1297-1301), lung cancer (H69; see e.g. Gazdar A F, et al. Cancer Res. 1980, 40, 3502-3507), doxorubicin-resistant lung cancer (H69AR; see e.g. Mirski S E, et al. Cancer Res. 1987, 47, 2594-2598), myeloma (RPMI 8226; see e.g. Matsuoka Y, et al. Proc. Soc. Exp. Biol. Med. 1967, 125, 1246-1250), doxorubicin-resistant myeloma (8226/Dox40; see e.g. Dalton W S et al. Blood 1989, 15,747-752), lymphoma (U-937, see e.g. Sundstrom C, et al. Int. J. Cancer 1976, 17, 565-577), vincristin-resistant lymphoma (U-937-vcr; see e.g. Botling J, et al. Int J Cancer 1994, 15; 58 (2), 269-274), ovarian cancer (A2780; see e.g. Hamilton T C, et al. Semin Oncol. 1984, 11, 285-298), doxorubicin-resistant ovarian cancer (A2780/Adr), cisplatin-resistant ovarian cancer (A2780/Cis; see e.g. Behrens B C, et al. Cancer Res. 1987, 47, 414-418), renal cancer (ACHN; see e.g. Borden E C, et al. Cancer Res. 1982, 42(12), 4948-4953), pancreatic cancer (PANC-1, BxPC-3, and MIA PaCa-2; see e.g. Lieber M, et al. Int. […]

[3] = system: MCF7; assay: FMCA, MCF7 breast cancer; details: Homo sapiens, read-out: EC50 (μM) in various cancer cell lines: MCF7
From the text: as §1, §2, §3, §4, §5

[4] = system: CEM/VM1; assay: FMCA, CEM/VM1 teniposide-resistant leukaemia; details: Homo sapiens, read-out: EC50 (μM) in various cancer cell lines: CEM/VM1
From the text: as §1, §2, §3, §4, §5

[5] = system: H69; assay: FMCA, H69 lung cancer; details: Homo sapiens, NCI-H69, read-out: EC50 (μM) in various cancer cell lines: H69
From the text: as §1, §2, §3, §4, §5

[6] = system: RPMI 8226; assay: FMCA, RPMI 8226 myeloma; details: Homo sapiens, read-out: EC50 (μM) in various cancer cell lines: RPMI 8226
From the text: as §1, §2, §3, §4, §5

[7] = system: 8226/Dox40; assay: FMCA, 8226/Dox40 doxorubicin-resistant myeloma; details: read-out: EC50 (μM) in various cancer cell lines: 8226/Dox40
From the text: as §1, §2, §3, §4, §5

[8] = system: ACHN; assay: FMCA, ACHN renal cancer; details: Homo sapiens, read-out: EC50 (μM) in various cancer cell lines: ACHN
From the text: as §1, §2, §3, §4, §5

[9] = system: U-937; assay: FMCA, U-937 lymphoma; details: Homo sapiens, read-out: EC50 (μM) in various cancer cell lines: U-937
From the text: as §1, §2, §3, §4, §5

[10] = system: U-937-vcr; assay: FMCA, U-937-vcr vincristin-resistant lymphoma; details: read-out: EC50 (μM) in various cancer cell lines: U-937-ver
From the text: as §1, §2, §3, §4, §5

[11] = system: A2780; assay: FMCA, A2780 ovarian cancer; details: Homo sapiens, read-out: EC50 (μM) in various cancer cell lines: A2780
From the text: as §1, §2, §3, §4, §5

[12] = system: A2780/Adr; assay: FMCA, A2780/Adr doxorubicin-resistant ovarian cancer; details: read-out: EC50 (μM) in various cancer cell lines: A2780/Adr
From the text: as §1, §2, §3, §4
(§6) The compounds of the invention were also tested on further cancer cell lines related to colon cancer (HCT116; see e.g Brattain M G, et al. Cancer Res. 1981, 41, 1751-1756), breast cancer (MCF7; see e.g. Soule H D, et al. J. Natl. Cancer Inst. 1973, 51, 1409-1416), teniposide-resistant leukaemia (CEM/VM1; see e.g. Danks M K et al. Cancer Res. 1987, 47, 1297-1301), lung cancer (H69; see e.g. Gazdar A F, et al. Cancer Res. 1980, 40, 3502-3507), doxorubicin-resistant lung cancer (H69AR; see e.g. Mirski S E, et al. Cancer Res. 1987, 47, 2594-2598), myeloma (RPMI 8226; see e.g. Matsuoka Y, et al. Proc. Soc. Exp. Biol. Med. 1967, 125, 1246-1250), doxorubicin-resistant myeloma (8226/Dox40; see e.g. Dalton W S et al. Blood 1989, 15,747-752), lymphoma (U-937, see e.g. Sundstrom C, et al. Int. […]

[13] = system: A2780/Cis; assay: FMCA, A2780/Cis cisplatin-resistant ovarian cancer; details: A2780cis, read-out: EC50 (μM) in various cancer cell lines: A2780/Cis
From the text: as §1, §2, §3, §4, §6

[14] = system: BxPC-3; assay: FMCA, BxPC-3 pancreatic cancer; details: Homo sapiens, read-out: EC50 (μM) in various cancer cell lines: BxPC-3
From the text: as §1
as §2, with “versa. […]” for “versa.”
as §4, with “Each experiment was performed three times, except for PBMC and hRPTEpiC, which were performed twice.” left out, “curves. […]” for “curves.”

[15] = system: PANC-1; assay: FMCA, PANC-1 pancreatic cancer; details: Homo sapiens, read-out: EC50 (μM) in various cancer cell lines: PANC-1
From the text: as §1
as §2, with “versa. […]” for “versa.”
as §4, with “Each experiment was performed three times, except for PBMC and hRPTEpiC, which were performed twice.” left out, “curves. […]” for “curves.”

[16] = system: MIA PaCa-2; assay: FMCA, MIA PaCa-2 pancreatic cancer; details: Homo sapiens, read-out: EC50 (μM) in various cancer cell lines: MIA PaCa-2
From the text: as §1
as §2, with “versa. […]” for “versa.”
as §4, with “Each experiment was performed three times, except for PBMC and hRPTEpiC, which were performed twice.” left out, “curves. […]” for “curves.”

[17] = system: H69AR; assay: FMCA, H69AR doxorubicin-resistant lung cancer; details: Homo sapiens, read-out: EC50 (μM) in various cancer cell lines: H69 AR
From the text: as §1, §2, §3, §4, §5

SMILES	EC50 [1] [nM]	EC50 [2] [µM]	EC50 [3] [µM]	EC50 [4] [µM]	EC50 [5] [µM]	EC50 [6] [µM]	EC50 [7] [µM]	EC50 [8] [µM]	EC50 [9] [µM]	EC50 [10] [µM]	EC50 [11] [µM]	EC50 [12] [µM]	EC50 [13] [µM]	EC50 [14] [µM]	EC50 [15] [µM]	EC50 [16] [µM]	EC50 [17] [µM]
c1cc(Nc2nccc(NCc3ccc4[nH]ccc4c3)n2)c2cc[nH]c2c1 [Example 1, N^4-(1H-indol-5-ylmethyl)-N^2-(1H-indol-4-yl)pyrimidine-2,4-diamine]	330	6.7	9	0.12	10.8	0.5	0.37	2.54	0.07	0.07	0.7	2.4	0.35				
c1cc(Nc2nccc(NCc3ccc4[nH]cnc4c3)n2)c2cc[nH]c2c1 [Example 19, N^4-(1H-benzo[d]imidazol-5-ylmethyl)-N^2-(1H-indol-4-yl)pyrimidine-2,4-diamine]	1020	9.83	28.5	1.33	30.7	12.8	46.3	25.2	1.47	1.81	1.59	12.6	1.99	< 1	< 1	< 1	
Cc1cc2cc(Nc3ccnc(NCc4ccc5[nH]ccc5c4)n3)ccc2[nH]1 [Example 24, N^2-(1H-indol-5-ylmethyl)-N^4-(2-methyl-1H-indol-5-yl)pyrimidine-2,4-diamine]	380	0.51	4.43	0.21	9.35	0.23	0.41	1.26	0.19	0.19	0.28	0.6	0.22				0.46
Cc1cc(NCc2ccc3[nH]ncc3c2)nc(Nc2cccc3[nH]ccc23)n1 [Example 37, N^4-(1H-indazol-5-ylmethyl)-N^2-(1H-indol-4-yl)-6-methylpyrimidine-2,4-diamine]	420	6.2	4.92	0.23	11.6	0.81	2.02	3.08	0.29	0.34	0.45	1.71	0.32	< 0.1	< 0.1	< 0.1	
COc1ccc2[nH]cc(CCNc3nccc(NCc4ccc5[nH]c(C)cc5c4)n3)c2c1 [Example 64, N^2-[2-(5-methoxy-1H-indol-3-yl)ethyl]-N^4-(2-methyl-1H-indol-5-ylmethyl)pyrimidine-2,4-diamine]	50	1.33	2.33	0.05	4.18	0.23	1.19	1.6	0.08	0.32	0.29						0.29
COc1ccc2[nH]cc(CCNc3nccc(NCc4ccc5[nH]ncc5c4)n3)c2c1 [Example 66, N^4-(1H-indazol-5-ylmethyl)-N^2-[2-(5-methoxy-1H-indol-3-yl)ethyl]pyrimidine-2,4-diamine]	210	2.45	3.35	0.27	11.6	1.83	10	3.32	0.35	0.99	0.78						0.64
Cc1cc2cc(Nc3ccnc(NCc4ccc5[nH]cnc5c4)n3)ccc2[nH]1 [Example 67, N^2-(1H-benzo[d]imidazol-5-ylmethyl)-N^4-(2-methyl-1H-indol-5-yl)pyrimidine-2,4-diamine]	210	2.47	12.4	0.33	37.2	5.01	24.4	5.43	0.22	1.74	1.37						0.71
c1cc(Nc2nccc(NCc3ccc4[nH]ccc4c3)n2)c2cn[nH]c2c1 [Example 76, N^4-(1H-indol-5-ylmethyl)-N^2-(1H-indazol-4-yl)pyrimidine-2,4-diamine]	230	3.09	3.08	0.22	12.7	0.7	1.1	1.59	0.19	0.4	0.34						0.34
COc1ccc2[nH]cc(CCNc3nc(C)cc(NCc4ccc5[nH]ccc5c4)n3)c2c1 [Example 84, N^4-(1H-indol-5-ylmethyl)-N^2-[2-(5-methoxy-1H-indol-3-yl)ethyl]-6-methylpyrimidine-2,4-diamine]	40	1.16	2.06	0.19	5.47	0.45	2.58	1.62	0.21	0.27	0.33						0.35
